The values that follow come from publication PMC4579270, “Identification and Characterization of an Irreversible Inhibitor of CDK2” (Chemistry & Biology, 2015).

Like-named read-outs stand apart in the source and are kept apart here.

What all share (format): biochemical
In assay [1] the target is T1, CDK2^K89V/cyclin A (Homo sapiens, UniProt P24941, K89V).
T1 construct: GST (N, cleaved yes); made in house; host or cells: Escherichia coli; phosphorylated in vitro by GST-CAK
Description: Bandshift kinase assay after incubation and dialysis, mutant. On the procedure: The bandshift experiment was repeated after incubating CDK2^K88E/cyclin A and CDK2^K89V/cyclin A with NU6300, NU6310, or DMSO followed by dialysis to remove unbound inhibitor (Figure S2G).
Figure S2, Related to Figure 3. Identification of the site of CDK2 modification by NU6300. (A-G) Single site CDK2 mutants CDK2D86A, CDK2K88E, and CDK2K89V identify the site of CDK2 modification by NU6300. These mutations change the CDK2 sequence to that of CDK7 and are known not to disrupt the CDK2 fold. Mass spectra of CDK2 mutants: […]
(G) Protein kinase activity of authentic CDK2 and single site CDK2 mutants following incubation with NU6300 or NU6310. Samples were taken at the indicated number of minutes after initiation of the reaction. Note that compared to authentic CDK2, the single site Lys88 and Lys89 mutants have a slower rate of reaction (Compare LHS panels). This drop in activity was expected because whereas the wild type protein was produced by co-expression with S. cerevisiae […]
the mutant proteins were activated by S. cerevisiae CAK1 phosphorylation in vitro– a relatively inefficient process as judged from the results of ESI-MS (Table S1). (H) NU6300 […]
NU6300 carbon atoms are coloured green. Rb, retinoblastoma protein, Phospho-Rb, […]
Protein expression and purification
Site-directed mutagenesis of CDK2 was performed using the QuikChange II kit (Stratagene) following the manufacturer’s instructions and verified by DNA sequencing.
Wild-type CDK2 phosphorylated at Thr160, untagged human cyclin A2 (residues 174-432), S. cerevisiae GST–CAK, GST–3C-protease and GST–pRb (residues 792–928) were expressed and purified as previously described (Brown et al., 1999a; Brown et al., 1999b; Welburn and Endicott, 2005). […]
CDK2/cyclin A (200 µM) was incubated overnight with 1 mM inhibitor or DMSO, and then dialysed for 8 h with regular replacement of dialysis buffer into HEPES-buffered saline (50 mM HEPES, pH 7.5, 250 mM NaCl, 0.02% MTG). […] Reactions were stopped by addition of SDS-PAGE loading buffer and analyzed by SDS-PAGE. […]

The target in assay [2] is CDK9-Cyclin T1 (Homo sapiens, UniProt P50750). Description: Dundee kinase screen re-test (standard format and 4 hour pre-incubation). Conditions: CDK9/cyclin T1, 0.5µM. As for the experimental part: (§1) Prior to determining its cellular activity, we carried out a screen to assess its selectivity against a panel of 131 protein kinases under conditions that would not distinguish between a reversible or irreversible mode of action. […] These 13 kinases and 29 additional kinases, selected for their known sensitivity to other inhibitors within the purine series, were then tested in a modified screening format in which the assay was repeated following a 4-hr pre-incubation (Table S3B). […] However, conformational flexibility around the active site may promote such an interaction with a residue from another part of the structure ([Martin et al., 2012]).
(§2) Table S3, Related to Figure 4. NCL-0006300 protein kinase selectivity. […]
(§3) Dundee protein kinase screen (Bain et al., 2007). […]
(§4) (B) Selected kinases were re-tested in the Dundee kinase screen against NU6300 at a single concentration of 0.5 µM both in the standard assay format and following a 4 hour pre-incubation in the presence of NU6300. Kinases which have very low activity after the 4 hour incubation so that results might not be wholly reliable are boxed in salmon. Kinases where the activity after a 4 hour pre-incubation is < 50% that in the standard assay format are highlighted in red.

The target in assay [3] is T2, CHK1 (Homo sapiens, UniProt O14757).
T2 sequence (O14757 1-476): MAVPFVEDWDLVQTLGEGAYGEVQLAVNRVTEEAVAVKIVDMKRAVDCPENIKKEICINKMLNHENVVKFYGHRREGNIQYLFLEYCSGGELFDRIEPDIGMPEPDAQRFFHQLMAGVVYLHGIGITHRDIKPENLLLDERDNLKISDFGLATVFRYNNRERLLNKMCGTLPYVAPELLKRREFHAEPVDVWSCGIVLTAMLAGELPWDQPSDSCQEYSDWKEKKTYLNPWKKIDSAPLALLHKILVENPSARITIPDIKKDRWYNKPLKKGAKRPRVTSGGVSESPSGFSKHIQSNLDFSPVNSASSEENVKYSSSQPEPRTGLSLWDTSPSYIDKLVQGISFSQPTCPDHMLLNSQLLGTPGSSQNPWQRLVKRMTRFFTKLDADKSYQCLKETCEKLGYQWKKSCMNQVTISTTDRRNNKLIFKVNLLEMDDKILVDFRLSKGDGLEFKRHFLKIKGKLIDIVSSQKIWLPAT
The description is as above. Conditions: CHK1, 0.5µM. On the procedure: as §1, §2, §3, §4

Assay [4] relates to GCK (MAP4K3). The assay is described as above. As for the experimental part:
as §1, §2, §4

The mark [5] stands for this setting: 4hr RT preincubation, read-out: %Remaining activity at 0.5µM NU6300 - 4hr RT preincubation.
Setting [6] is: usual format, read-out: %Remaining activity at 0.5µM NU6300 - Usual assay format.

Chain of CDK9-Cyclin T1 (P50750 whole entry): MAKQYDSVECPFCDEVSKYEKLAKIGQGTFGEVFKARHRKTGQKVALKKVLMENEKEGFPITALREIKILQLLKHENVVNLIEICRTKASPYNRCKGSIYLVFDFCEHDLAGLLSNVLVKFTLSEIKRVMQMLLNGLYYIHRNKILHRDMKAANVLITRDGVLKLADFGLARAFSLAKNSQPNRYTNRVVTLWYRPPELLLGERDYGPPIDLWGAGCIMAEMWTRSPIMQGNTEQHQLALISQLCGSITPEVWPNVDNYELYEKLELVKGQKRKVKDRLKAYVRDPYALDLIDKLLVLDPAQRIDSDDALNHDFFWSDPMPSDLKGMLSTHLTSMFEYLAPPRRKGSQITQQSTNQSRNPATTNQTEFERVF
Chain of CDK9-Cyclin T1 (O60563 whole entry partner): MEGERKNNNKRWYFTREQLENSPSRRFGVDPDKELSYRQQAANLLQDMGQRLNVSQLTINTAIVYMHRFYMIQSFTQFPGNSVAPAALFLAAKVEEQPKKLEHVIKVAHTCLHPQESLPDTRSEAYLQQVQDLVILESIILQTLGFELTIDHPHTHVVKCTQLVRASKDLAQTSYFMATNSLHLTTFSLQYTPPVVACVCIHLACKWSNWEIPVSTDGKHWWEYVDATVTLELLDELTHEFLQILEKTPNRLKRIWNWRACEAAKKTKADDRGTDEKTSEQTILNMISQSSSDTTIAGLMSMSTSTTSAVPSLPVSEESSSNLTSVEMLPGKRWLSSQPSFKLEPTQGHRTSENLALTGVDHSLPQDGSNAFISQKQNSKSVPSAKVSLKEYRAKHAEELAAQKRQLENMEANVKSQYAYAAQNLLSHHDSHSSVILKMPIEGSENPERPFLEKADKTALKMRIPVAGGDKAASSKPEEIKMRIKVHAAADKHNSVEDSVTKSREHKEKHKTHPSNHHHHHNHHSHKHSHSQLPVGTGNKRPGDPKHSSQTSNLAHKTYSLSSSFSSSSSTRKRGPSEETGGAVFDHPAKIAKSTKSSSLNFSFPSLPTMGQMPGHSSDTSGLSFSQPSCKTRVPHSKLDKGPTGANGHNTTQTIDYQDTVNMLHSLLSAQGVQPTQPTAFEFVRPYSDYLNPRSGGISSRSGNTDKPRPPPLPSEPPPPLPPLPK

For the compound `C=CS(=O)(=O)c1ccc(Nc2nc(OCC3CCCCC3)c3nc[nH]c3n2)cc1` [NU6300, 6-(cyclohexylmethoxy)-N-(4-(vinylsulfonyl)phenyl)-9H-purin-2-amine], the “CDK2 activity against Rb after incubation with inhibitor and dialysis” value in assay [1] is on record as “recovered activity”. Besides, the remaining activity at 0.5 µM is 127% in assay [2] (setting [5]), 89% in assay [2] (setting [6]), 42% in assay [3] (setting [5]) and 72% in assay [3] (setting [6]). Further, the “%Remaining activity at 0.5µM NU6300 - 4hr RT preincubation” value in assay [4] (0.5µM, 4hr RT preincubation) is reported as 29%. Also, the “%Remaining activity at 0.5µM NU6300 - Usual assay format” value in assay [4] (0.5µM, usual format) is recorded as 89%. The “additional loss of activity after pre-incubation” value in assay [4] (4-hr pre-incubation vs usual format, 0.5 µM) is greater than 50%.

In the case of `CCS(=O)(=O)c1ccc(Nc2nc(OCC3CCCCC3)c3nc[nH]c3n2)cc1` [NU6310, 6-(cyclohexylmethoxy)-N-(4-(ethylsulfonyl)phenyl)-9H-purin-2-amine], the “CDK2 activity against Rb after incubation with inhibitor and dialysis” value in assay [1] is on record as “recovered their activity”.

In general, remaining activity refers to the signal under treatment as a percentage of the control signal.
